Primed or numbered codes have the meaning given here. FAM = 5(6)-carboxyfluorescein; FAM″ = C-terminal FAM dye
Tested on: NSC-34 cells
Experiment: Evaluation on cell membrane permeability by flow cytometry
Format: cell-based, mouse
Conditions: median fluorescence intensity of FAM (detector FL2), 25 µM construct, 0.42% DMSO, 20 hours at 37°C, 5% CO2
Description: As the eukaryotic cells, NSC-34 cells (mouse motor neuron-like hybrid cell line) were used and the cell membrane permeability of the samples 1 to 7 was analyzed. In Examples 1 to 7, the prepared sample solutions 1 to 7 were used, respectively, and in Example 8, a FAM solution was used.
The NSC-34 cells were cultured in 10% fetal bovine serum (FBS)-containing Dulbecco's modified Eagle's medium (DMEM (Cat No. 044-29765, manufactured by FUJIFILM Wako Pure Chemical Corporation)), which is a normal culture medium.
The NSC-34 cells that adhered to a culture plate were cleaned with PBS and then, a 0.25%-trypsin/EDTA solution was added thereto, and incubation was performed for three minutes at 37°C. After the incubation, the aforementioned 10% FBS-containing DMEM was added to deactivate trypsin and then, five-minute centrifugal separation was performed at 150 × g to precipitate the cells. After the supernatant generated by the centrifugal separation was removed, the 10% FBS-containing DMEM was added to the precipitate (cell pellet) to prepare a cell suspension of about 2 × 10^5 cells/mL. The cell suspension was added by 1 mL to a well of a commercially available six-hole (well) plate (manufactured by AGC TECHNO GLASS Co., Ltd.) so as to seed the cell (about 2 × 10^5 cells/well). In addition, the 6 mM sample solution 1 was diluted with the 10% FBS-containing DMEM to prepare the sample solution 1 in which the concentration of the sample 1 was 50 µM. Then, 1 mL of the 50 µM sample solution 1 was added to the well (that is, so that the concentration of the sample 1 became 25 µM and the DMSO concentration became 0.42% in the culture solution in the well). After that, the cell was incubated for 20 hours at 37°C under a 5% CO2 condition.
After the 20-hour incubation, the culture supernatant was removed from the well and the cells in the well were cleaned twice with 1 mL of PBS. Next, 200 µL of the 0.25% trypsin/EDTA solution was added to the well and the incubation was performed for three minutes at 37°C. After the incubation, 400 µL of the 10% FBS-containing DMEM was added to the well to deactivate the trypsin. Subsequently, the cell suspension in the well was transferred to a tube and the cells were collected. After that, 600 µL of PBS was added further to the well to clean the well. Then, PBS in the well was transferred to the tube, so that the cells remaining in the well were collected in the tube. This tube was subjected to five-minute centrifugal separation at 4°C under a condition of 210 × g. After the centrifugal separation, the supernatant was removed and the precipitate (cell pellet) was suspended (cleaned) with 1 mL of PBS, which was followed by the centrifugal separation under the same condition as that described above. After this operation was repeated twice, the supernatant was removed and thus, the cells (cell pellet) cultured in a culture medium containing the sample 1 were obtained.
Regarding the obtained cells (cell pellet), the cell membrane permeability of the sample 1 was analyzed using a flow cytometer. As the flow cytometer, On-Chip Flowcytometer (manufactured by On-Chip Biotechnologies Co., LTD.) was used.
For such an analysis, the obtained cell pellet was suspended with 100 µL of on-chip T buffer to prepare a cell suspension for analysis.
Using the aforementioned flow cytometer, gating based on forward scatter (FSC) and side scatter (SSC) was performed to set a gate about a cell group to be analyzed, and the fluorescence intensity was measured about the cell group in this gate. Note that the analysis was performed so that the cell group contained at least 10000 cells or more. The fluorescence intensity was measured using a fluorescence detector FL2 of the flow cytometer (optimum detection wavelength around 543 nm) capable of detecting the fluorescence wavelength of FAM. […]

Substance | MFI
5(6)-carboxyfluorescein [Example 8] | 11
Ac-KKRTLRKDDEERKKR-FAM (Ac-KKRTLRKDDEERKKR-{FAM}) [Example 5] | 14.8
Ac-KKRTLRKDEDERKKR-FAM [Example 6] | 15.2
Ac-KKRTLRKDERKKR-FAM (Ac-KKRTLRKDERKKR-{FAM}) [Example 1] | 16.3
Ac-KKRTLRKEDEDEDRKKR-FAM (Ac-KKRTLRKEDEDEDRKKR-{FAM}) [Example 7] | 14.3
Ac-KKRTLRKEDEDRKKR-FAM (Ac-KKRTLRKEDEDRKKR-{FAM″}) [Example 3] | 13.8
Ac-KKRTLRKEDRKKR-FAM (Ac-KKRTLRKEDRKKR-{FAM}) [Example 2] | 15.7
Ac-KKRTLRKEEDDRKKR-FAM (Ac-KKRTLRKEEDDRKKR-{FAM}) [Example 4] | 14.3
